Reference: ChEMBL document CHEMBL1121788, “Structure-activity studies on narcotic antagonists. 2. N-substituted ethyl 3-(m- or p-hydroxyphenyl) nipecotates” (1981)

What was measured:
Format in all cases: functional
Mus musculus [1] = species: Mus musculus; experiment: Analgesic activity in mice by the tail-flick method
Mus musculus [2] = species: Mus musculus; experiment: Analgesic activity in mice by the acetic acid writhing assay
Mus musculus [3] = species: Mus musculus; experiment: Compound was tested for antagonist activity against morphine sulfate by the mouse tail-flick method
Mus musculus [4] = species: Mus musculus; experiment: Analgesic activity in mice by the tail-flick method, activity expressed as ED50

Row | SMILES | ED50 (Mus musculus [1]) | ED50 (Mus musculus [2]) | AD50 (Mus musculus [3]) | ED50 (Mus musculus [4])
1 | Br.CCOC(=O)C1(c2cccc(O)c2)CCCN(CC2CC2)C1 (configuration not stated) | 68 µmol/kg | 4 µmol/kg | 18.8 µM/kg | –
2 | CCCN1CCCC(C(=O)OCC)(c2ccc(O)cc2)C1.Cl (configuration not stated) | > 305 µmol/kg | 62.5 µmol/kg | 140 µM/kg | –
3 | CCOC(=O)C1(c2ccc(O)cc2)CCCN(CC2CC2)C1.Cl (configuration not stated) | 100 µmol/kg | 4.65 µmol/kg | >294 µM/kg | –
4 | Br.CCOC(=O)C1(c2cccc(O)c2)CCCN(C)C1 (configuration not stated) | – | 5.66 µmol/kg | 24.4 µM/kg | > 290 µmol/kg
5 | Br.CCOC(=O)C1(c2ccc(O)cc2)CCCN(C)C1 (configuration not stated) | > 290 µmol/kg | 22.9 µmol/kg | >290 µM/kg | –
6 | C=CCN1CCCC(C(=O)OCC)(c2ccc(O)cc2)C1.Cl (configuration not stated) | > 307 µmol/kg | 10.4 µmol/kg | >307 µM/kg | –
7 | C=CCN1CCCC(C(=O)OCC)(c2cccc(O)c2)C1.O=P(O)(O)O (configuration not stated) | > 229 µmol/kg | 7.22 µmol/kg | >92 µM/kg | –
8 | CCCN1CCCC(C(=O)OCC)(c2cccc(O)c2)C1.O=P(O)(O)O (configuration not stated) | > 91 µmol/kg | 5.59 µmol/kg | 59.3 µM/kg | –
9 | CN1CC[C@]23c4c5ccc(O)c4O[C@H]2[C@@H](O)C=C[C@H]3[C@H]1C5 [MORPHINE] | 4.9 µmol/kg | 0.72 µmol/kg | – | –
10 | C=CCN1CC[C@]23c4c5ccc(O)c4O[C@H]2C(=O)CC[C@@]3(O)[C@H]1C5 [NALOXONE] | 0.08 µmol/kg | – | – | –
